Assay results published in US8633168B2, “Inhibitors of S-adenosyl-L-methionine decarboxylase” (Genzyme Corporation, priority 2007, dated 2014).

Legend:
Mouse PK study = assay type: in vivo; conditions: for t/2 in mouse: Table 3
Experimental: The rodent PK study designs provide reliable estimation of PK parameters using fewer animals. Often two routes, PO and IV, were included in the rodent PK study protocols with three subjects in each dosing group (often PO at 10 mg/kg and IV at 3 mg/kg).

T. b. brucei - STIB795 = assay: In vivo efficacy, acute T. b. brucei STIB795 infection model in mice; design: species or system mouse (NMRI); conditions: for average (survival days) / cured/infected: 4 × 50 mg/kg i.p., NMRI mice; for average (survival days): control 6; for activity in the model (lengthening the survival days) / mice cured: STIB795 model, footnote of Table 4; for protection from lethal effects of infection: controls died on average by Day 6
Experimental: Compounds are tested for efficacy in the acute model for T. b. brucei infection (Bitonti A J, Byers T L, Bush T L, Casara P J, Bacchi C J, Clarkson A B, Jr., McCann P P, Sjoerdsma A, 1990. Cure of Trypanosoma brucei brucei and Trypanosoma brucei rhodesiense infections in mice with an irreversible inhibitor of S-adenosylmethionine decarboxylase. Antimicrob Agents Chemother 34: 1485-1490). Briefly, mice are infected with 1×10^4 strain STIB 795 trypanosomes on Day 0, then treated once/day (50 mg/kg i.p) with test compound for 4 days starting on Day 3. Animals are assessed by microscopic examination of blood smears twice/week through Day 60. Untreated animals generally die by Days 7-9.

| Structure (SMILES) | t/2 in mouse (Mouse PK study) | t/2, fold greater than that for MDL-73811 (Mouse PK study; vs MDL-73811) | survival of treated animals (T. b. brucei - STIB795) | average (survival days) (T. b. brucei - STIB795) | cured/infected (T. b. brucei - STIB795; 20 Days) | cured/infected (T. b. brucei - STIB795; >30 Days) | parasites on Day 20 (T. b. brucei - STIB795; Day 20) | parasites on Day 30 (T. b. brucei - STIB795; Day 30) | activity in the model (lengthening the survival days) (T. b. brucei - STIB795) | mice cured (T. b. brucei - STIB795; listed as Compound No. 4) | protection from lethal effects of infection (T. b. brucei - STIB795) | cured/infected (T. b. brucei - STIB795; 26 Days) | mice cured (T. b. brucei - STIB795) | logD (physchem) |
| --- | --- | --- | --- | --- | --- | --- | --- | --- | --- | --- | --- | --- | --- | --- |
| CN(C/C=C\CN)C[C@H]1O[C@@H](n2cnc3c(N)nc(Cl)nc32)[C@H](O)[C@@H]1O [Compound 3] | 1.66 h |  |  |  |  |  |  |  |  |  |  |  |  |  |
| Cc1nc2c(N)ncnc2n1[C@@H]1O[C@H](CN(C)C/C=C\CN)[C@@H](O)[C@H]1O (stereo in doubt) [Compound 4] | 7.43 h | ~3 fold | all survived through Day 30 | >30 days | 20 Days 0/4 | 1/4 | appeared free of parasites | parasites were again evident | active in the model in terms of lengthening the survival days | ¼ | protected mice from lethal effects of infection |  |  |  |
| CN(C/C=C\CN)CC1OC(n2cnc3c(N)ncnc32)C(O)C1O (stereo not shown) [MDL-73811, reference compound] | 2.48 h |  | all survived through Day 30 | >30 days |  | 1/4 |  |  | active in the model in terms of lengthening the survival days |  | protected mice from lethal effects of infection | 26 Days 2/4 | ¼ | -1.8 |
| CN(C/C=C\CN)C[C@H]1O[C@@H](n2cnc3c(N)ncnc32)[C@H](F)[C@@H]1O (stereo in doubt) [Compound 1] | 1.93 h |  |  |  |  |  |  |  |  |  |  |  |  |  |
